pKi: −log10 of the molar value.
Assays:
Assay type in all cases: biochemical
[1] = target: T1, trypanothione reductase (TR) (Trypanosoma brucei, UniProt P39051); assay: spectrophotometric NADPH consumption ([…] nm) with TS2; Lineweaver-Burk and non-linear regression
T1 construct: gene TPR; recombinant Trypanosoma brucei TR

[2] = target: T2, human glutathione reductase (hGR) (Homo sapiens, UniProt P00390); assay: spectrophotometric NADPH consumption ([…] nm) with GSSG; Lineweaver-Burk and non-linear regression
T2 construct: gene GSR; recombinant human glutathione reductase
T2 sequence (P00390 44-522): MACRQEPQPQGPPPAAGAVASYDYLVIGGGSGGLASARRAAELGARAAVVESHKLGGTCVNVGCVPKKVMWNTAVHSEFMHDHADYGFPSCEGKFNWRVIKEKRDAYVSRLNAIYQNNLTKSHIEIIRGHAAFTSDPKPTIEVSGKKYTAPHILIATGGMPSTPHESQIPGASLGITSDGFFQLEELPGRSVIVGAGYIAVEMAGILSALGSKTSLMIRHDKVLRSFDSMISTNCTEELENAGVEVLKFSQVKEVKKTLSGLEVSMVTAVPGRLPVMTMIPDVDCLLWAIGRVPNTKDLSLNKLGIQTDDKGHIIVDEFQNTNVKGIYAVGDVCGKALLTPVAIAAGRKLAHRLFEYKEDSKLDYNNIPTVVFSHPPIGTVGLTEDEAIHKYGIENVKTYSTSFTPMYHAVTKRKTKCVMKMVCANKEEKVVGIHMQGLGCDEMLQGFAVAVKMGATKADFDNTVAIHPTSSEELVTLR

[3] = target: T1, trypanothione reductase (TR); assay: spectrophotometric NADPH consumption ([…] nm) with TS2; % inhibition at […] ([…] TS2); settings: read-out: % Inhibition of TR / 44 μM [TS2]

T1 sequence (P39051 whole entry): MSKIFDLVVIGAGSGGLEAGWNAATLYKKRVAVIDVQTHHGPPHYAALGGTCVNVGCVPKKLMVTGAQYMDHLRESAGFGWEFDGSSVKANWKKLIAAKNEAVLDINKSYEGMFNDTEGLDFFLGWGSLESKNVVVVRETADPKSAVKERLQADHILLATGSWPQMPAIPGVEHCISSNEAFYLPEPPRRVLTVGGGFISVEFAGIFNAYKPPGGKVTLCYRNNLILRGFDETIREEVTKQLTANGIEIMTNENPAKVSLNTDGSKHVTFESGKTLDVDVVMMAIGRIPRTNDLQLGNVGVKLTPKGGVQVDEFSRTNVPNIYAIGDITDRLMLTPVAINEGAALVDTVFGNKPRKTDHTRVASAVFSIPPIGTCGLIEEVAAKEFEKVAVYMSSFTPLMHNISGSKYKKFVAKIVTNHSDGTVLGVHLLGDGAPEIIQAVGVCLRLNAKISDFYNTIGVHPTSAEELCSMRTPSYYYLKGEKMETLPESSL

Row | SMILES | pKi [1] | pKi [2] | inhibition at 20 µM [3] [%]
1 | CCCCOC(=O)c1ccc2c(c1)[n+]([O-])c(C(=O)C(C)(C)C)c(C(F)(F)F)[n+]2[O-] [T-147] | 4.94 | 4.60 | –
2 | CCCCOC(=O)c1ccc2c(c1)[n+]([O-])c(C(=O)c1ccccc1)c(C(F)(F)F)[n+]2[O-] [T-148] | – | – | 36

From article PMC9655728, “In Vitro and In Silico Analysis of New n-Butyl and Isobutyl Quinoxaline-7-carboxylate 1,4-di-N-oxide Derivatives against Trypanosoma cruzi as Trypanothione Reductase Inhibitors” (International Journal of Molecular Sciences, 2022)
